Measurements: US7135466B2 (Kirin Beer Kabushiki Kaisha, priority 1999, dated 2006)
pIC50: −log10 of the molar value. Read-outs that look alike come from different tables or passages of the source.

Experiments:
c-kit = target: T1, c-kit (Homo sapiens, UniProt P10721); assay: Inhibitory activity against c-kit autophosphorylation (MO7e cells, h-SCF); type: cell-based; conditions: for pIC50: MO7e cells, read-out: c-kit IC50; for inhibition at 1 µM: Mo7e, at 1000 nM
T1 construct: MO7e (human megakaryocytic leukemia cell line) which had been arrested for 20 hr; endogenous in cells; host or cells: MO7e human megakaryocytic leukemia cell line
How it was run: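 MO7e human megakaryocytic leukemia cells, arrested 20 hr, treated with compound 1 hr, then stimulated with 50 ng/ml h-SCF for 5 min and lysed. Lysates captured on immobilized anti-phosphotyrosine antibody, detected with anti-c-kit primary and HRP secondary antibody; absorbance at 450 nm.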

PDGF-Ra = target: T2, PDGF-Ra (Homo sapiens, UniProt P16234); assay: Inhibitory activity against PDGF-Ra phosphorylation by PDGF-AA stimulation using G292; type: cell-based; conditions: for pIC50: > means inhibition at indicated concentration not more than 50%, < and << not less than 50%, read-out: PDGF (E) IC50; for inhibition at 0.1 µM: G292, at 100 nM, read-out: PDGF (E) inhibition (%) at 100 nM
T2 construct: host or cells: G-292 human osteosarcoma cells
How it was run: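 Human osteosarcoma G-292, 0.1% FBS o/n; cpd (DMSO) 1 h 37 °C; PDGF-AA 50 ng/ml 5 min; lyse 20 min RT; PY-20 capture 4 °C o/n; anti-PDGF-Ra + HRP-GAR; OD450.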

[1] = figure within parentheses in >100( )
[2] = figure within parentheses in −( ) or >1000( )

T1 sequence (P10721 26-976): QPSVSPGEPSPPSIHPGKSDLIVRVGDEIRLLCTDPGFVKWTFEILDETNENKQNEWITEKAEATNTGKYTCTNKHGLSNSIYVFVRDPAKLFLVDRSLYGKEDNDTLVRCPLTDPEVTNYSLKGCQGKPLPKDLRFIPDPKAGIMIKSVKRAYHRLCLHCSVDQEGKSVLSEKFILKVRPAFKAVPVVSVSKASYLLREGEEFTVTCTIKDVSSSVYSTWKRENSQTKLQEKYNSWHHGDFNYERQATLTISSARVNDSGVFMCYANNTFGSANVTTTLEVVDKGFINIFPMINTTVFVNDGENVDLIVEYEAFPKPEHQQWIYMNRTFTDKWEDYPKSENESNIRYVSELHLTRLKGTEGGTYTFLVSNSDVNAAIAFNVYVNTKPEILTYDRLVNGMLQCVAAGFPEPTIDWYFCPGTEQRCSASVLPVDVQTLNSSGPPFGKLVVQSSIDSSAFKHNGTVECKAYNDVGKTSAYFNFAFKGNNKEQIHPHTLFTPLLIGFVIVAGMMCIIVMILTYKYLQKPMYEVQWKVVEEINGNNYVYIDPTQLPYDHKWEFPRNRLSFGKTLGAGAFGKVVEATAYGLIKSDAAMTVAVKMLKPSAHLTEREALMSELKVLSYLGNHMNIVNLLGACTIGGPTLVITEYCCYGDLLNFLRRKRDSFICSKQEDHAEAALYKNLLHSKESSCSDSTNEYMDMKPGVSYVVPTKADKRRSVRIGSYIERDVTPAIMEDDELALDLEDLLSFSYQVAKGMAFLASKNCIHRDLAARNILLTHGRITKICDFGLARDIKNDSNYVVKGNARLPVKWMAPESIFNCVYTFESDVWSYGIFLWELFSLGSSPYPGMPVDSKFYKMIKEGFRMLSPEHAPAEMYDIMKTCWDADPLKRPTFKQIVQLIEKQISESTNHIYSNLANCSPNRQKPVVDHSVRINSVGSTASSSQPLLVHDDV
T2 sequence (P16234 24-1089): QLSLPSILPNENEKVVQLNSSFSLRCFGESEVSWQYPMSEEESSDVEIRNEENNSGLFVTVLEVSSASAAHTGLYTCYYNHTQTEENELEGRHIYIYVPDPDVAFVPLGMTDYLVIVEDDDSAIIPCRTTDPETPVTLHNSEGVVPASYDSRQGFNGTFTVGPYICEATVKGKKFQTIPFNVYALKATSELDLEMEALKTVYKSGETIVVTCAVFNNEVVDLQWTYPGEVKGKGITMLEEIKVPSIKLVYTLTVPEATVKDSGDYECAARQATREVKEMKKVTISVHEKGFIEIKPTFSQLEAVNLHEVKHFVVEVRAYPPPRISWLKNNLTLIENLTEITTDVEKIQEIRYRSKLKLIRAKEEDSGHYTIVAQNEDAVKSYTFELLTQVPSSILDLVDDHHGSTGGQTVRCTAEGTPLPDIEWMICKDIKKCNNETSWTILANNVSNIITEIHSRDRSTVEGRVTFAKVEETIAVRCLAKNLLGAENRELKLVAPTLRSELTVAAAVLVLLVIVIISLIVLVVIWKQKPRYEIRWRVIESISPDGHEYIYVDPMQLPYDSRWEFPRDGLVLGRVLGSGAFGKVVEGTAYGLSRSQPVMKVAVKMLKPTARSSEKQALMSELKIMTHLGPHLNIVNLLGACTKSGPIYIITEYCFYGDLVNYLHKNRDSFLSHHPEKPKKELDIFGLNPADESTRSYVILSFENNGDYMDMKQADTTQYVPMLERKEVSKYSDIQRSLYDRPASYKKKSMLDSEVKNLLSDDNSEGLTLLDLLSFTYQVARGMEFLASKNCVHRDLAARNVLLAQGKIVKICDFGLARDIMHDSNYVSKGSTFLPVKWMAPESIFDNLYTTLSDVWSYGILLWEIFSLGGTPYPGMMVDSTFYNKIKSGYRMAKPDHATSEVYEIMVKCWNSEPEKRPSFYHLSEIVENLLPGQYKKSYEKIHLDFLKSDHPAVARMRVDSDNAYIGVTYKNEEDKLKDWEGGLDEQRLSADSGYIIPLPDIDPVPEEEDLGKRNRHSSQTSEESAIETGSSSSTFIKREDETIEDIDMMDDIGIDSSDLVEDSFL

Row | SMILES | pIC50 (PDGF-Ra) | pIC50 (c-kit; h-SCF 50 ng/ml) | pIC50 (PDGF-Ra; Pharmacological Test Example 1) | other results
1 | CCCCN(CCCC)CCNC(=O)Nc1ccc(Oc2ccnc3cc(OC)c(OC)cc23)c(C)c1C [Example 684, N-[2-(Dibutylamino)ethyl]-N′-{4-[(6,7-dimethoxy-4-quinolyl)oxy]-2,3-dimethylphenyl}urea] | 7.28 |  |  | pIC50 (c-kit; 50 ng/ml h-SCF): 6.26
2 | CCCC(CCN1CCOCC1)OC(=O)Nc1cc(C)c(Oc2ccnc3cc(OC)c(OC)cc23)cc1C (centres unmarked) [Example 438, 1-(2-Morpholinoethyl)butyl N-{4-[(6,7-dimethoxy-4-quinolyl)oxy]-2,5-dimethylphenyl}carbamate] | < 7.00 |  |  | pIC50 (c-kit; 50 ng/ml h-SCF): 6.38; inhibition at 0.1 µM (PDGF-Ra; [1]): 41%
3 | COc1ccc(COC(=O)Nc2ccc(Oc3ccnc4cc(OC)c(OC)cc34)cc2)cc1 [Example 249, 4-Methoxybenzyl N-{4-[(6,7-dimethoxy-4-quinolyl)oxy]phenyl}carbamate] |  | 7.24 | 8.40 | 
4 | CCCCN(CCCC)CCNC(=O)Nc1ccc(Oc2ncnc3cc(OC)c(OC)cc23)cc1OC [Example 688, N-[2-(Dibutylamino)ethyl]-N′-{4-[(6,7-dimethoxy-4-quinazolinyl)oxy]-2-methoxyphenyl}urea] | 7.47 |  |  | inhibition at 1 µM (c-kit; [2]): 19%
5 | CCCCC(C)C(=O)NC(=S)Nc1ccc(Oc2ccnc3cc(OC)c(OC)cc23)cc1 (centres unmarked) [Example 1074, N-{4-[(6,7-Dimethoxy-4-quinolyl)oxy]phenyl}-N′-(2-methylhexanoyl)thiourea] | > 8.00 |  |  | pIC50 (c-kit; h-SCF stimulation): 6.54
6 | CCCCCCCCCCCCCCCCCCOC(=O)Nc1ccc(Oc2ccnc3cc(OC)c(OC)cc23)c(C)c1C [Example 328, Octadecyl N-{4-[(6,7-dimethoxy-4-quinolyl)oxy]-2,3-dimethylphenyl}carbamate] |  |  | < 7.00 | inhibition at 1 µM (c-kit; figure in parentheses in −( )): 10%; inhibition at 0.1 µM (PDGF-Ra; figure in parentheses in >100( )): 22%
7 | CCCCN(CCCC)CCCNC(=S)Nc1cc(C)c(Oc2ccnc3cc(OC)c(OC)cc23)cc1C [Example 552, N-{4-[(6,7-Dimethoxy-4-quinolyl)oxy]-2,5-dimethylphenyl}-N′-(3-dibutylaminopropyl)thiourea] | < 7.00 |  |  | inhibition at 1 µM (c-kit; [2]): 28%; inhibition at 0.1 µM (PDGF-Ra; [1]): 10%
8 | COc1cc2ncnc(Oc3ccc(NC(=O)NCCN4CCCCC4)c(Cl)c3)c2cc1OC [Example 677, N-{2-Chloro-4-[(6,7-dimethoxy-4-quinazolinyl)oxy]phenyl}-N′-(2-piperidinoethyl)urea] | 7.33 |  |  | pIC50 (c-kit; 50 ng/ml h-SCF): 6.14
9 | COc1cc2nccc(Oc3ccc(NC(=O)NCCN4CCCCC4)c([N+](=O)[O-])c3)c2cc1OC [Example 678, N-{4-[(6,7-Dimethoxy-4-quinolyl)oxy]-2-nitrophenyl}-N′-(2-piperidinoethyl)urea] | > 8.00 |  |  | pIC50 (c-kit; 50 ng/ml h-SCF): 6.79
10 | COc1cc2nccc(Oc3cc(C)c(NC(=O)OCCCOc4ccc(F)cc4)cc3C)c2cc1OC [Example 154, 3-(4-Fluorophenoxy)propyl N-{4-[(6,7-dimethoxy-4-quinolyl)oxy]-2,5-dimethylphenyl}carbamate] |  | 7.21 | 7.40 | 
11 | COc1ccc(OCCCOC(=O)Nc2cc(C)c(Oc3ccnc4cc(OC)c(OC)cc34)cc2C)cc1 [Example 44, 3-(4-Methoxyphenoxy)propyl N-{4-[(6,7-dimethoxy-4-quinolyl)oxy]-2,5-dimethylphenyl}carbamate] |  | 6.48 | 7.72 | 
12 | COc1cc2nccc(Oc3ccc(NC(=O)NN4CCCCC4)c([N+](=O)[O-])c3)c2cc1OC [Example 594, N-{4-[(6,7-Dimethoxy-4-quinolyl)oxy]-2-nitrophenyl}-N′-(1-piperidinyl)urea] | < 7.00 |  |  | inhibition at 1 µM (c-kit; [2]): 10%; inhibition at 0.1 µM (PDGF-Ra; [1]): 39%
13 | COc1ccc(OC)c(COC(=O)Nc2ccc(Oc3ccnc4cc(OC)c(OC)cc34)c(C)c2C)c1 [Example 68, 2,5-Dimethoxybenzyl N-{4-[(6,7-dimethoxy-4-quinolyl)oxy]-2,3-dimethylphenyl}carbamate] |  | 6.53 | 7.89 | 
14 | COc1cc2nccc(Oc3ccc(NC(=O)OCCSc4ccc(C)cc4)c(C)c3C)c2cc1OC [Example 138, 3-[(4-Methylphenyl)sulfanyl]ethyl N-{4-[(6,7-dimethoxy-4-quinolyl)oxy]-2,3-dimethylphenyl}carbamate] |  | 7.13 | 7.77 | 
15 | CCCCC(CC)OC(=O)Nc1ccc(Oc2ncnc3cc(OC)c(OC)cc23)cc1 (centres unmarked) [Example 401, 1-Ethylpentyl N-{4-[(6,7-dimethoxy-4-quinazolinyl)oxy]phenyl}carbamate] | > 8.00 |  |  | pIC50 (c-kit; 50 ng/ml h-SCF): 6.23
16 | CCC(OC(=O)Nc1ccc(Oc2ccnc3cc(OC)c(OC)cc23)cc1)c1ccccc1 (centres unmarked) [Example 263, 1-Phenylpropyl N-{4-[(6,7-dimethoxy-4-quinolyl)oxy]phenyl}carbamate] |  | 6.48 | 8.00 | 

Row | SMILES | pIC50 (PDGF-Ra) | pIC50 (c-kit; h-SCF 50 ng/ml) | pIC50 (PDGF-Ra; Pharmacological Test Example 1) | other results
17 | CCCCN(CCCC)CCNC(=O)Nc1ccc(Oc2ncnc3cc(OC)c(OC)cc23)cc1 [Example 685, N-[2-(Dibutylamino)ethyl]-N′-{4-[(6,7-dimethoxy-4-quinazolinyl)oxy]phenyl}urea] | 7.66 |  |  | inhibition at 1 µM (c-kit; [2]): 41%
18 | CCN(CC)CCNC(=O)Nc1ccc(Oc2ccnc3cc(OC)c(OC)cc23)cc1Cl [Example 650, N-{2-Chloro-4-[(6,7-dimethoxy-4-quinolyl)oxy]phenyl}-N′-[2-(diethylamino)ethyl]urea] | 7.49 |  |  | pIC50 (c-kit; 50 ng/ml h-SCF): 6.38
19 | CCC(OC(=O)Nc1ccc(Oc2ncnc3cc(OC)c(OC)cc23)cc1Cl)c1ccccc1 (centres unmarked) [Example 346, 1-Phenylpropyl N-{2-chloro-4-[(6,7-dimethoxy-4-quinazolinyl)oxy]phenyl}carbamate] |  |  | 7.39 | inhibition at 1 µM (c-kit; figure in parentheses in −( )): 37%
20 | COc1cc2ncnc(Oc3ccc(NC(=O)OCCN(C)C)cc3)c2cc1OC [Example 191, 2-(Dimethylamino)ethyl N-{4-[(6,7-dimethoxy-4-quinazolinyl)oxy]phenyl}carbamate] |  | 6.30 | 7.08 | 
21 | COc1cc2ncnc(Oc3ccc(NC(=O)NC4CC(C)(C)NC(C)(C)C4)cc3)c2cc1OC [Example 563, N-{4-[(6,7-Dimethoxy-4-quinazolinyl)oxy]phenyl}-N′-(2,2,6,6-tetramethyl-4-piperidyl)urea] | 7.27 |  |  | pIC50 (c-kit; 50 ng/ml h-SCF): 6.39
22 | COc1cc2nccc(Oc3ccc(NC(=S)NC(=O)c4cc(C)oc4C)c(C)c3)c2cc1OC [Example 698, N-{4-[(6,7-Dimethoxy-4-quinolyl)oxy]-2-methylphenyl}-N′-[(2,5-dimethyl-3-furyl)carbonyl]thiourea] | < 7.00 |  |  | inhibition at 1 µM (c-kit; [2]): 29%; inhibition at 0.1 µM (PDGF-Ra; [1]): 34%
23 | CCCCCCOC(=O)Nc1ccc(Oc2ncnc3cc(OC)c(OC)cc23)cc1Cl [Example 336, Hexyl N-{2-chloro-4-[(6,7-dimethoxy-4-quinazolinyl)oxy]phenyl}carbamate] |  | 6.96 | 7.85 | 
24 | COc1cc2nccc(Oc3ccc(NC(=O)OCc4ccc(C(C)(C)C)cc4)cc3)c2cc1OC [Example 57, 4-(Tert-butyl)benzyl N-{4-[(6,7-dimethoxy-4-quinolyl)oxy]phenyl}carbamate] |  | 6.41 | 7.96 | 
25 | CCCC(CCN1CCN(C)CC1)OC(=O)Nc1ccc(Oc2ncnc3cc(OC)c(OC)cc23)cc1 (centres unmarked) [Example 452, 1-[2-(4-Methylpiperazino)ethyl]butyl N-{4-[(6,7-dimethoxy-4-quinazolinyl)oxy]phenyl}carbamate] | < 7.00 |  |  | inhibition at 1 µM (c-kit; [2]): 37%; inhibition at 0.1 µM (PDGF-Ra; [1]): 31%
26 | COc1ccc(OCCCOC(=O)Nc2ccc(Oc3ncnc4cc(OC)c(OC)cc34)cc2)cc1 [Example 45, 3-(4-Methoxyphenoxy)propyl N-{4-[(6,7-dimethoxy-4-quinazolinyl)oxy]phenyl}carbamate] |  | 7.04 | > 8.00 | 
27 | COc1cc2nccc(Oc3ccc(NC(=O)OC(C)c4cc(F)c(F)cc4F)c(C)c3C)c2cc1OC (centres unmarked) [Example 93, 1-(2,4,5-Trifluorophenyl)ethyl N-{4-[(6,7-dimethoxy-4-quinolyl)oxy]-2,3-dimethylphenyl}carbamate] |  | 6.22 | 7.77 | 
28 | COc1cc2ncnc(Oc3ccc(NC(=O)OCc4ccc(C)cc4)cc3)c2cc1OC [Example 1, 4-Methylbenzyl N-{4-[(6,7-dimethoxy-4-quinazolinyl)oxy]phenyl}carbamate] |  | 7.28 | > 8.00 | 
29 | COc1cc2nccc(Oc3cc(C)c(NC(=O)OC(C)c4ccc(F)cc4)cc3C)c2cc1OC (centres unmarked) [Example 104, 1-(4-Fluorophenyl)ethyl N-{4-[(6,7-dimethoxy-4-quinolyl)oxy]-2,5-dimethylphenyl}carbamate] |  | 6.23 | 7.60 | 
30 | CCC(CC)OC(=O)Nc1ccc(Oc2ncnc3cc(OC)c(OC)cc23)cc1 [Example 361, 1-Ethylpropyl N-{4-[(6,7-dimethoxy-4-quinazolinyl)oxy]phenyl}carbamate] |  | 6.56 | > 8.00 | 
31 | COc1ccc(OC)c(COC(=O)Nc2ccc(Oc3ccnc4cc(OC)c(OC)cc34)cc2)c1 [Example 67, 2,5-Dimethoxybenzyl N-{4-[(6,7-dimethoxy-4-quinolyl)oxy]phenyl}carbamate] |  | 6.47 | > 8.00 | 
